The values below come from patent US20070219237A1, “Chromane Derivatives” (Pfizer Inc, priority 2006, published 2007).

T1 sequence (P19156 2-1034 limits assumed): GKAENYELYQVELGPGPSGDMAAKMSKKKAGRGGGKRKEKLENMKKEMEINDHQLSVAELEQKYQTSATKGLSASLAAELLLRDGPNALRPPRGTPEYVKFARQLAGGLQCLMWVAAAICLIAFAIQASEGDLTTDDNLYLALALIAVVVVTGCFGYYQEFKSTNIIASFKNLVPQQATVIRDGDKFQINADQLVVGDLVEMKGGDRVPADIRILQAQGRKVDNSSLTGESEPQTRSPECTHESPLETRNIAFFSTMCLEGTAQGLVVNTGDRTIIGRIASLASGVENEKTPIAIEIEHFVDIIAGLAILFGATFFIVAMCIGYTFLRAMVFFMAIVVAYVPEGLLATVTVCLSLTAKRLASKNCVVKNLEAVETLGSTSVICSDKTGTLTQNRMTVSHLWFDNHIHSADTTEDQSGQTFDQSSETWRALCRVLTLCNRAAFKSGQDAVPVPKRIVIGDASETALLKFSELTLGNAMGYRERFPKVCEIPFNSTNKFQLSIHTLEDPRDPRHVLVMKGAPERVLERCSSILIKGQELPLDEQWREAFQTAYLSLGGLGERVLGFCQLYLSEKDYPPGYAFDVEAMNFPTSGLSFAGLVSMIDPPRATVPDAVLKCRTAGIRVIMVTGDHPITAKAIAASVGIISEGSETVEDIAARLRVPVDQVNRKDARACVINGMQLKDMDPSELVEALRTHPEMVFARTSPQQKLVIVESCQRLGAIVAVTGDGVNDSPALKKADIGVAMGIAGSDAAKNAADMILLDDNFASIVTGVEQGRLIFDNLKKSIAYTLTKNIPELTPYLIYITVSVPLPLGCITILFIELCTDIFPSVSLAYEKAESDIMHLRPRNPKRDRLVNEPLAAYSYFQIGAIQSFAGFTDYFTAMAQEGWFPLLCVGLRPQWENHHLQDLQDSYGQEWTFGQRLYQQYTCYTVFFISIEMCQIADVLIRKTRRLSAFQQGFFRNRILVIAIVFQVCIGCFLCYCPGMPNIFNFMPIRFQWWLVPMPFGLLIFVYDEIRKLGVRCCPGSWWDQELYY
T1 sequence (P18434 whole entry partner): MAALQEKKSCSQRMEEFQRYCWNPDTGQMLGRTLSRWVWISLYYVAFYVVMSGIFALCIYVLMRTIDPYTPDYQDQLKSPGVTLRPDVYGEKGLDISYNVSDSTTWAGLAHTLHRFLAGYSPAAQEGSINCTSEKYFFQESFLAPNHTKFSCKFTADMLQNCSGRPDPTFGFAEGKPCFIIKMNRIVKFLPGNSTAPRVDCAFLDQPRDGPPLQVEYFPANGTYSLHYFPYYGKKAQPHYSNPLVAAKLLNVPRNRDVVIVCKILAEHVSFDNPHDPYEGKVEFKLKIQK

One series concerns the target T1, porcine gastric H^+/K^+-ATPase (Sus scrofa, UniProt P19156).
T1 construct: prepared from mucous membrane in fresh porcine stomachs by homogenization; from tissue; host or cells: gastric vesicles from mucous membrane of fresh porcine stomachs
The series is described as follows: Ion-tight porcine gastric H+/K+-ATPase inhibition. The format is biochemical. The conditions noted are these: ion-tight gastric vesicles, 150 mM KCl, 15 μM valinomycin, pH 7.4, 37° C., 30 minutes; read-out: IC50 of the inhibitory activity. The method, then:
The porcine gastric vesicles for Porcine gastric H^+/K^+-ATPase inhibition assays were prepared from mucous membrane in fresh porcine stomachs by homogenization with a tight-fitted polytetrafluoroethylene (Teflone®) homogenizer in 0.25 M sucrose at 4° C. The crude pellet was removed with centrifugation at 20,000 g for 30 min. Then supernatant was centrifuged at 100,000 g for 30 min. The resulting pellet was re-suspended in 0.25 M sucrose, and then subjected to density gradient centrifugation at 132,000 g for 90 min. The gastric vesicles were collected from interface on 0.25 M sucrose layer containing 7% FicollTM PM400(Amersham Biosciences). This procedure was performed in a cold room.
Ion-tight porcine gastric H^+/K^+-ATPase inhibition was measured according to the modified method described in Biochemical Pharmacology, 1988, 37, 2231-2236.
The isolated vesicles were kept in deep-freezer until use. For enzyme assay, vesicles were diluted with 3 mM MgSO4 containing 5 mM Tris (pH 7.4 at 37° C.).
Enzyme reaction was performed incubating 150 mM KCl, 3 mM Na2ATP, 3 mM MgSO4, 15 μM valinomycin and 3.0 μg of vesicles for 30 minutes at 37° C. in a final 60 μl of reaction mixture (5mM Tris, pH 7.4) with or without the test compound. Enzyme reaction was stopped by adding 10% SDS. Released inorganic phosphate from ATP was detected by incubating with mixture of 1 part of 35 mM ammonium molybdate tetrahydrate in 15 mM Zinc acetate hydrate and 4 parts of 10% ascorbic acid (pH 5.0), resulting in phosphomolybdate, which has optical density at 750 nm.
Consider `Cc1nc2c(NC3CCOc4cc(F)cc(F)c43)cc(C(=O)N3CCOCC3)cn2c1CO` (single isomer, unassigned; (-)) [Example 8-3, (−)-[8-[5,7-Difluoro-3,4-dihydro-2H-chromen-4-yl)amino]-2-methyl-6-(morpholin-4-ylcarbonyl)imidazo[1,2-a]pyridin-3-ylmethanol], for which the IC50 stood at 52 nM.
Regarding `Cc1nc2c(NC3CCOc4cccc(F)c43)cc(C(=O)N(C)C)cn2c1CO` (single isomer, unassigned; (+)) [Example 4-3, (+)-8-[(5-Fluoro-3,4-dihydro-2H-chromen-4yl)-amino]-3-(hydroxymethyl)-N,N,2-trimethylimidazo [1,2-a]pyridine-6-carboxamide], the IC50 is 30 nM.
For the molecule `Cc1nc2c(NC3CCOc4cccc(F)c43)cc(C(=O)N3CCOCC3)cn2c1CO` (racemic) [Example 9-1, [8-[(5-Fluoro-3,4-dihydro-2H-chromen-4-yl)amino]-2-methyl-6-(morpholin-4-ylcarbonyl)imidazo[1,2-a]pyridin-3-yl]methanol], the 50% inhibitory concentration (IC50) stood at 47 nM.
On the same count and under the same terms, as for `Cc1cccc2c1C(Nc1cc(C(=O)N(C)C)cn3c(CO)c(C)nc13)CCO2` (single isomer, unassigned) [Example 1-3], the figure is 89 nM; as for `Cc1nc2c(NC3CCOc4cc(F)cc(F)c43)cc(C(=O)N(C)C)cn2c1CO` (single isomer, unassigned) [Example 3-3], 41 nM; as for `Cc1nc2c(NC3CCOc4cccc(F)c43)cc(C(=O)N(C)C)cn2c1CO` (single isomer, unassigned; (-)) [Example 4-2, (−)-8-[(5-Fluoro-3,4-dihydro-2H-chromen-4-yl)amino]-3-(hydroxymethyl)-N,N,2-trimethylimidazo [1,2a]pyridine-6-carboxamide], 29 nM.
The same measure, in the same setting: as for `Cc1nc2c(NC3CCOc4ccccc43)cc(C(=O)N(C)C)cn2c1CO` (single isomer, unassigned; (-)) [Example 2-3], the figure is 67 nM; as for `Cc1cccc2c1C(Nc1cc(C(=O)N3CCOCC3)cn3c(CO)c(C)nc13)CCO2` (single isomer, unassigned; (+)) [Example 6-3, (+)-[2-Methyl-8-[(5-methyl-3,4-dihydro-2H-chromen-4-yl)amino]-6-(morpholin-4-ylcarbonyl)imidazo[1,2-a]pyridin-3-yl]methanol], 61 nM; as for `Cc1nc2c(NC3CCOc4ccccc43)cc(C(=O)N(C)C)cn2c1CO` (single isomer, unassigned; (+)) [Example 2-2, (+)-8-(3,4-Dihydro-2H-chromen-4-ylamino)-3-(hydroxymethyl)-N,N,2-trimethylimidazo[1,2-a]pyridine-6-car boxamide], 61 nM.
On to `Cc1nc2c(NC3CCOc4cccc(F)c43)cc(C(=O)N3CCOCC3)cn2c1CO` (single isomer, unassigned; (-)) [Example 9-3], for which the half-inhibitory concentration (IC50) was 61 nM.
Still for that read-out and setting: as for `Cc1nc2c(NC3CCOc4ccccc43)cc(C(=O)N3CCOCC3)cn2c1CO` (single isomer, unassigned; (-)) [Example 7-2, (−)-[f8-(3,4-Dihydro-2H-chromen-4-ylamino)-2-methyl-6-(morpholin-4-ylcarbonyl)imidazo[1,2-a]pyridin-3-yl]methanol], the figure is 96 nM.
In the case of `Cc1cccc2c1[C@@H](Nc1cc(C(=O)N(C)C)cn3c(CO)c(C)nc13)CCO2` (single isomer, unassigned) [Example 1-2], the half-maximal inhibitory concentration (IC50) was found to be 84 nM.
Regarding `Cc1nc2c(NC3CCOc4cc(F)cc(F)c43)cc(C(=O)N(C)C)cn2c1CO` (single isomer, unassigned) [Example 3-2], the IC50 turned out to be 37 nM.
Still for that read-out and setting: as for `Cc1nc2c(NC3CCOc4ccccc43)cc(C(=O)N3CCOCC3)cn2c1CO` (single isomer, unassigned; (+)) [Example 7-3, (+)-[8-(3,4-Dihydro-2H-chromen-4-ylamino)-2-methyl-6-(morpholin-4-ylcarbonyl)imidazo[1,2-a]pyridin-3-yl]methanol], the figure is 110 nM.
Turning to `Cc1nc2c(NC3CCOc4cc(F)cc(F)c43)cc(C(=O)N3CCOCC3)cn2c1CO` (racemic) [Example 8-1], the concentration for half-maximal inhibition (IC50) amounted to 55 nM.
Consider `Cc1nc2c(NC3CCOc4cc(F)cc(F)c43)cc(C(=O)N3CCOCC3)cn2c1CO` (single isomer, unassigned; (+)) [Example 8-2, (+)-[8-[(5,7-Difluoro-3,4-dihydro-2H-chromen-4-yl)amino]-2-methyl-6-(morpholin-4-ylcarbonyl)imidazo[1,2-a]pyridin-3-yl]methanol], for which the concentration for half-maximal inhibition (IC50) amounted to 40 nM.
`Cc1cccc2c1C(Nc1cc(C(=O)N3CCOCC3)cn3c(CO)c(C)nc13)CCO2` (single isomer, unassigned; (-)) [Example 6-2]: the IC50 turned out to be 43 nM.
Same read-out and setting: as for `Cc1nc2c(NC3CCOc4ccccc43)cc(C(=O)N(C)C)cn2c1CO` (racemic) [Example 2-1, 8-(3,4-Dihydro-2H-chromen-4-ylamino)-3-(hydroxymethyl)-N,N,2-trimethylimidazo[1,2a]pyridine-6-carboxamide], the figure is 75 nM; as for `Cc1nc2c(NC3CCOc4cccc(F)c43)cc(C(=O)N3CCOCC3)cn2c1CO` (single isomer, unassigned; (+)) [Example 9-2], 72 nM.
For the molecule `Cc1nc2c(NC3CCOc4ccccc43)cc(C(=O)N3CCOCC3)cn2c1CO` (racemic) [Example 7-1, [8-(3,4-Dihydro-2H-chromen-4-ylamino)_-2-methyl-6-(morpholin-4-ylcarbonyl)imidazo[1,2-a]pyridin-3-yl]methanol], the concentration for half-maximal inhibition (IC50) amounted to 140 nM.

Tested on in a further series: not given
Experiment: not given
Conditions: not given
Molecule `Cc1nc2c(N[C@H]3CCOc4cc(F)cc(F)c43)cc(C(=O)N(C)C)cn2c1CO` (single isomer, unassigned) [Example 3-3] came in with a melting point of 186 °C.

For orientation: IC50 means the concentration at which inhibition is half-maximal. The melting point is the temperature of the solid-liquid transition.
